In patent US9249115B2, “N,N1 substituted piperazines having combined antiaggregant, anticoagulant and vasodilatory activity, and method for producing same” (Vertex Closed Joint Stock Company, priority 2011, dated 2016):

Experiments:
[1] = test system: Thrombocyte aggregation induced by arachidonic acid; experiment: Thrombocyte aggregation induced by arachidonic acid; assay type: cell-based, human; settings: arachidonic acid 0.2 mmol
Experimental: (§1) The study of antiaggregant and anticoagulant properties of N,N′-substituted piperazines on the sample of donor human blood. The blood was collected by donor ulnar vein punction with dry sharp needle without syringe. The administration of drugs that influence on thrombocyte function was cancelled in 7÷10 days before the experiment.
(§2) In graduated plastic centrifuge tube 1 ml of 3.8% basic trisodium citrate solution with pH=7.4 was placed. The ulnar vein was punctuated, the freely effluent blood was collected up to 10 ml mark, the mixture was instantly stirred to prevent air bubbles appearance. The collected and stabilized blood was split in two 5 ml portions in two tubes.
(§3) To obtain thrombocyte enriched plasm the stabilized blood was spinned at 1000 rpm (150 g) for 8 min at room temperature. The repeated spinning of the blood at 3200 rpm (2300 g) for 20 min at 22° C. yielded thrombocyte depleted plasm.
The study of antiaggregant properties of N,N′-substituted piperazines with arachidonic acid (CHRONO-LOG, USA) as an inductor: to 450 l of thrombocyte plasm 50 l of N,N′-substituted piperazine solution was added, the mixture was incubated in the cuvette of CHRONO-LOG aggregometer for 15 min at 36° C. The concentration of arachidonic acid in the sample was 0.2 mmol, the concentrations of N,N′-substituted piperazines and comparison substance (aspirin) were 4÷5 mmol/L.
It was shown that N,N′-substituted piperazines have pronounced aspirin-like activity by inhibiting thrombocyte aggregation induced by arachidonic acid (table 5).

[2] = test system: thrombocyte depleted plasm coagulation; experiment: Activated partial thromboplastin time (APTT), anticoagulant properties; assay type: biochemical, human
Experimental: as §1, §2, §3
To study anticoagulant properties of N,N′-substituted piperazines activated partial thromboplastin time (APTT) was measured. That is the ability of N,N′-substituted piperazines to increase thrombocyte depleted plasm coagulation time compared to the ability of control sample. The set of reagents for APTT determination (Russian Scientific Research Institute of Hematology and Transfusiology Ministry of Health of Russian Federation by Technical Regulation 9398-214-01966456-99) and COAG-A-MATE® XM coagulometer (ORGANON TEKNIKA, USA) were used.
The solutions of N,N′-substituted piperazines were mixed with thrombocyte depleted plasm at 1:1 ratio, then 0.1 ml of APTT reagent was added, the mixture was incubated in the cuvette for 5 min at 37° C., then 0.1 ml of 0.277% CaCl2 solution was added. The time of coagulation (in seconds) was measured.

[3] = test system: Ristocetin-induced thrombocyte aggregation; experiment: Ristocetin-induced thrombocyte aggregation, donor human thrombocyte enriched plasm; assay type: cell-based; settings: ristocetin inductor; for MA (60 c), %: amplitude at 60 s
Experimental: as §1, §2, §3
(§4) The study of anticoagulant activity was done within 2 h after thrombocyte enriched plasm obtaining. The plasm was normalized to achieve thrombocyte concentration of 200-250×10^9/L by addition of thrombocyte-free plasm. The concentration of thrombocytes was measured on SOLAR AR 2110 analyzer.
(§5) Antiaggregant properties of N,N′-substituted piperazines were evaluated by their influence on thrombocyte aggregation in tests with ADP-, collagen- and ristocetin-induced aggregation. To dissolve N,N′-substituted piperazines and to dilute reagents Tris-HCl-buffer with pH=7.4 was used.
(§6) As the general characteristic of thrombocyte aggregation activity the maximum amplitude (MA) of aggregation was taken on. That is the peak value of transmittance coefficient of the sample after aggregation agent introduction expressed in % relative to the transmittance of thrombocyte-free plasm. The response was registered on ascending linear segment of aggregation curve for 16 s.
(§7) The measurements were done using 4-channel CHRONO-LOG 490-4D analyzer (CHRONO-LOG, USA). The temperature in the cell was 37° C., the spinning speed of magnetic stirrer was 1200 rpm.
(§8) In a cuvette 0.5 ml of N,N′-substituted piperazine solution was placed, then 0.4 ml of normalized thrombocyte plasm was added. The mixture was stirred and incubated at 37° C. for 5 min. The cuvette was placed in aggregometer, then 0.05 ml of aggregation inductor solution was added (ADP or collagen or ristocetin). Thrombocyte aggregation was measured for 3 min.
To study ristocetin-induced thrombocyte aggregation CHRONO-PAR RISTOCETIN reagent (CHRONO-LOG, USA) was diluted with buffer solution until ristocetin concentration reached 12 mg/ml. Thrombocyte aggregation amplitude was measured in 60 s after the beginning of the reaction.

[4] = test system: Collagen-induced thrombocyte aggregation; experiment: Collagen-induced thrombocyte aggregation, donor human thrombocyte enriched plasm; assay type: cell-based; settings: collagen inductor; for MA, %: human thrombocyte plasm; for inhibition at 500 µM / inhibition at 1250 µM / inhibition at 2500 µM / inhibition at 5000 µM: Homo sapiens, read-out: (MA0-MAx): MA0 * 100%
Experimental: as §1, §2, §3, §4, §5, §6, §7, §8
In collagen-induced thrombocyte aggregation test CHRONO-PAR COLLAGEN reagent (CHRONO-LOG, USA) was diluted with buffer solution until collagen concentration reached 10 µg/ml.

[5] = test system: ADP-induced thrombocyte aggregation; experiment: ADP-induced thrombocyte aggregation, donor human thrombocyte enriched plasm; assay type: cell-based; settings: ADP inductor; for MA, %: human thrombocyte plasm
Experimental: as §1, §2, §3, §4, §5, §6, §7, §8
ADP-induced reversible thrombocyte aggregation test utilized CHRONO-PAR ADP reagent (CHRONO-LOG, USA) with 10 mol concentration. Primary (reversible) thrombocyte aggregation was evaluated by the response on addition of ADP threshold dose (ADP concentration is 1 mol) to plasm.

[6] = 1.7 mmol/L, thrombocyte depleted plasm
[7] = 2.5 mmol/L, thrombocyte depleted plasm
[8] = 4.1 mmol/L, thrombocyte depleted plasm
[9] = 8.3 mmol/L, thrombocyte depleted plasm
[10] = Homo sapiens, 0.2 mmol/L, read-out: (MA0-MAx): MA0 * 100%
[11] = Homo sapiens, 0.5 mmol/L, read-out: (MA0-MAx): MA0 * 100%
[12] = Homo sapiens, 1.25 mmol/L, read-out: (MA0-MAx): MA0 * 100%
[13] = Homo sapiens, 2.50 mmol/L, read-out: (MA0-MAx): MA0 * 100%

Compound | MA ([1]; 4.5 mmol/L) | Max. rate for 16 sec ([1]; 4.5 mmol/L) | inhibition at 4500 µM ([1]; Homo sapiens, 4.5 mmol/L) | (APTTx-APTT0): APTT0 * 100% ([2]; 1.7 mmol/L) | APTT [2, 6] | (APTTx-APTT0): APTT0 * 100% ([2]; 2.5 mmol/L) | MA, % ([4]; 0.5 mmol/L) | MA, % ([4]; 1.25 mmol/L) | MA, % ([4]; 2.5 mmol/L) | inhibition at 500 µM ([4]; 0.5 mmol/L) | inhibition at 1250 µM ([4]; 1.25 mmol/L) | inhibition at 2500 µM ([4]; 2.5 mmol/L) | MA, % ([5]; 0.2 mmol/L) | MA, % ([5]; 0.5 mmol/L) | MA, % ([5]; 1.25 mmol/L) | MA, % ([5]; 2.50 mmol/L) | inhibition at 200 µM [5, 10] | inhibition at 500 µM [5, 11] | inhibition at 1250 µM [5, 12] | inhibition at 2500 µM [5, 13] | further results
CC(=O)Oc1ccccc1C(=O)O [Acetylsalicylic acid, reference compound] | – | – | – | – | – | – | – | – | – | – | – | – | – | – | – | – | – | – | – | – | MA ([1]; 5 mmol/L): 3; Max. rate for 16 sec ([1]; 5 mmol/L): 5; inhibition at 5000 µM ([1]; Homo sapiens, 5 mmol/L): 100%
COc1cc(C(=O)N2CCN(C(=N)N)CC2)cc(OC)c1OC.O=C(O)/C=C/C(=O)O [Example 1, 4-(3,4,5-trimethoxybenzoyl)piperazine-1-carboximidamide fumarate hemihydrate] | 33 | 20 | 60% | 12.2% | 50.4 ± 7.0 s | 40.1% | 70.0 ± 5.1% | 60.7 ± 7.7% | 18.4 ± 3.1% | 5.4% | 18.8% | 75.1% | 6.4 ± 1.1% | 5.0 ± 1.1% | 4.1 ± 0.7% | 3.0 ± 12.1% | 53.3% | 63.5% | 70.1% | 78.1% | APTT [2, 7]: 63.3 ± 5.7 s; (APTTx-APTT0): APTT0 * 100% ([2]; 4.1 mmol/L): 56.8%; APTT [2, 8]: 70.4 ± 5.2 s; (APTTx-APTT0): APTT0 * 100% ([2]; 8.3 mmol/L): 209.8%; APTT [2, 9]: 139.1 ± 9.5 s; (MAx-MA0): MA0 * 100% ([3]; 0.5 mmol/L): 1.8%; MA (60 c), % ([3]; 0.5 mmol/L): 70.0 ± 10.5%; (MAx-MA0): MA0 * 100% (Ozagrel: (MA0-MAx): MA0 * 100%) ([3]; 1.25 mmol/L): 12.9%; MA (60 c), % ([3]; 1.25 mmol/L): 62.1 ± 7.7%; (MAx-MA0): MA0 * 100% (Ozagrel: (MA0-MAx): MA0 * 100%) ([3]; 2.5 mmol/L): 22.7%; MA (60 c), % ([3]; 2.5 mmol/L): 55.1 ± 11.1%; (MAx-MA0): MA0 * 100% (Ozagrel: (MA0-MAx): MA0 * 100%) ([3]; 5.0 mmol/L): 53.3%; MA (60 c), % ([3]; 5.0 mmol/L): 33.3 ± 4.5%; MA, % ([4]; 5.0 mmol/L): 2.1 ± 0.4%; inhibition at 5000 µM ([4]; 5.0 mmol/L): 97.2%; MA, % ([5]; 5.0 mmol/L): 1.3 ± 0.5%; inhibition at 5000 µM ([5]; Homo sapiens, 5.0 mmol/L, read-out: (MA0-MAx): MA0 * 100%): 90.5%
CCOc1ccc(CN2CCN(C(=N)N)CC2)c(OCC)c1OCC.Cl [Example 5, 4-(2,3,4-triethoxybenzyl)piperazine-1-carboximidamide hydrochloride] | – | – | – | −4.9% | 53.7 ± 7.0 s | 22.7% | 74.5 ± 4.3% | 63.7 ± 2.2% | 23.9 ± 0.3% | 5.3% | 19.1% | 69.8% | 14.9 ± 2.0% | 11.5 ± 1.3% | 5.3 ± 2.2% | 1.9 ± 0.4% | 2.7% | 24.8% | 65.4% | 87.8% | MA ([1]; 4.0 mmol/L): 2; Max. rate for 16 sec ([1]; 4.0 mmol/L): 1; inhibition at 4000 µM ([1]; Homo sapiens, 4.0 mmol/L): 100%; APTT, sec [2, 7]: 69.2 ± 5.9- sec; (APTTx-APTT0): APTT0 * 100% ([2]; 4.1 mmol/L): 35.6%; APTT [2, 8]: 76.5 ± 9.8 s; (APTTx-APTT0): APTT0 * 100% ([2]; 6.3 mmol/L): 75.4%; APTT ([2]; 6.3 mmol/L, thrombocyte depleted plasm): 98.9 ± 9.9 s; APTT [2, 9]: >150 s
COc1ccc(CN2CCN(C(=N)N)CC2)c(OC)c1OC [Example 7, 4-(2,3,4-trimethoxybenzyl)piperazine-1-carboximidamide monohydrate] | 72 | 49 | 35% | – | – | – | – | – | – | – | – | – | – | – | – | – | – | – | – | – | –
Cl.N=C(N)N1CCN(S(=O)(=O)c2cc(Cl)c(Cl)cc2Cl)CC1 [Example 13, 4-(2,4,5-trichlorophenylsulfonyl)piperazine-1-carboximidamide hydrochloride] | – | – | – | – | – | – | 72.1 ± 6.3% | 62.0 ± 9.8% | 55.0 ± 9.2% | 7.2% | 20.2% | 29.2% | 14.0 ± 3.9% | 10.3 ± 1.3% | 4.7 ± 2.1% | 1.4 ± 0.2% | 10.8% | 34.4% | 70.1% | 91.1% | MA ([1]; 4.0 mmol/L): 2; Max. rate for 16 sec ([1]; 4.0 mmol/L): 1; inhibition at 4000 µM ([1]; Homo sapiens, 4.0 mmol/L): 100%; (MAx-MA0): MA0 * 100% ([3]; 0.2 mmol/L): 1.8%; MA (60 c), % ([3]; 0.2 mmol/L): 60.1 ± 8.1%; (MAx-MA0): MA0 * 100% ([3]; 0.5 mmol/L): 22.5%; MA (60 c), % ([3]; 0.5 mmol/L): 48.2 ± 7.5%; (MAx-MA0): MA0 * 100% (Ozagrel: (MA0-MAx): MA0 * 100%) ([3]; 1.25 mmol/L): 30.9%; MA (60 c), % ([3]; 1.25 mmol/L): 43.0 ± 4.8%; (MAx-MA0): MA0 * 100% (Ozagrel: (MA0-MAx): MA0 * 100%) ([3]; 2.5 mmol/L): 43.4%; MA (60 c), % ([3]; 2.5 mmol/L): 35.2 ± 7.6%; (MAx-MA0): MA0 * 100% (Ozagrel: (MA0-MAx): MA0 * 100%) ([3]; 5.0 mmol/L): 48.4%; MA (60 c), % ([3]; 5.0 mmol/L): 32.1 ± 5.5%; MA, % ([4]; 5.0 mmol/L): 48.7 ± 7.1%; inhibition at 5000 µM ([4]; 5.0 mmol/L): 37.3%
